From the Kinase Knowledgebase extract (Sharma et al. 2016)

Molecular target: PIK3CA (human) (UniProt P42336)
Experiment: Assessment of PIK3CA Kinase Activity

Sequence of PIK3CA (human) (P42336 whole entry, looked up): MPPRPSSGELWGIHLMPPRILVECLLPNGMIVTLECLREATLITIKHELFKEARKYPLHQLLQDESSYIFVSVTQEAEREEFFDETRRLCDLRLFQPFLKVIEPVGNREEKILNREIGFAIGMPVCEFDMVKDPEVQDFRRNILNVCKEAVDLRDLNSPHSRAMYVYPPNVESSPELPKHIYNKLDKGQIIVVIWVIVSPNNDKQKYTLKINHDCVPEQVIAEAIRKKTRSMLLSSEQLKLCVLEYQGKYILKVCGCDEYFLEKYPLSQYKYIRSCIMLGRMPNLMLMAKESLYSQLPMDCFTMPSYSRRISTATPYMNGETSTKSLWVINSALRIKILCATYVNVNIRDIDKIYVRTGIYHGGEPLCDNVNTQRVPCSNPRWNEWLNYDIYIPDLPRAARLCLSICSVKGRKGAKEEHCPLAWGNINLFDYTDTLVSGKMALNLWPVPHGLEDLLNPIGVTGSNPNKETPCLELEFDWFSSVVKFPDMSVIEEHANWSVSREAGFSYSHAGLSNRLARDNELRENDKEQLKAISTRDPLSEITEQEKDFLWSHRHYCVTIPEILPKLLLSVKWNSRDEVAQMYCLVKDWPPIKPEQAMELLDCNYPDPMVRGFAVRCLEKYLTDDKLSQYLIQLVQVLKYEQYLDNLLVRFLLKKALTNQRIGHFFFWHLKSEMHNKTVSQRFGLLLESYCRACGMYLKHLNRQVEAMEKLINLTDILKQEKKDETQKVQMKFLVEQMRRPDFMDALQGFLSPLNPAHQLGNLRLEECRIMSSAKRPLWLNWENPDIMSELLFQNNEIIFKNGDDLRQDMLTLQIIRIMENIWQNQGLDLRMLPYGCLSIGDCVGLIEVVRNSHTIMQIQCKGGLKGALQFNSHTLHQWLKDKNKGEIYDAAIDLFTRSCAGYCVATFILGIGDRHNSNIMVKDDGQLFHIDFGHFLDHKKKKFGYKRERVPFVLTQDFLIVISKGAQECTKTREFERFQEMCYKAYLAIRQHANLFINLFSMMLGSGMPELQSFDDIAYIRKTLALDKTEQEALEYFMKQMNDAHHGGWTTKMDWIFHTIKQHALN

Row | Structure (SMILES) | IC50 [nM]
1 | CC(C)n1nccc1-c1cn2c(n1)-c1cnc(N3CCC[C@H]3C(N)=O)cc1OCC2 | < 1000
2 | CS(=O)(=O)c1ccccc1CNc1cc2c(cn1)-c1nc(-c3ncnn3-c3ccc(F)cc3F)cn1CCO2 | < 1000
3 | Clc1ccc(-c2ccc3c(c2)OCCn2cc(-c4ncnn4-c4ccccc4Cl)nc2-3)cc1 | < 1000
4 | CC(C)n1ncnc1-c1cn2c(n1)-c1ccc(C3CN(S(=O)(=O)CCN4CC(F)C4)C3)cc1OCC2 | < 1000
5 | Cc1nc(-c2cn3c(n2)-c2cnc(N4CCCC4Cc4ccccc4C)cc2OCC3)n(CC(F)(F)F)n1 (configuration not stated) | < 1000
6 | OCc1nc(-c2cn3c(n2)-c2cnc(N4CCCC4)cc2OCC3)n(CC(F)(F)F)n1 | < 1000
7 | CNc1ccc2c(n1)OCCn1cc(-c3ncnn3C(C)C)nc1-2 | < 1000
8 | Cc1nc(-c2cn3c(n2)-c2ccc(OC4CC4)cc2OCC3)n(C(C)C)n1 | < 1000
9 | CC(C)n1nc(N)nc1-c1cn2c(n1)-c1ccc(-c3cn(CCO)cn3)cc1OCC2 | < 1000
10 | CC(C)n1nc(N)nc1-c1cn2c(n1)-c1ccccc1OCC2 | < 1000
11 | CC(C)n1nc(N)nc1-c1cn2c(n1)-c1ccc(C3CC3)cc1OCC2 | < 1000
12 | CCc1ccccc1-c1cn2c(n1)-c1ccc(C(=O)OC)cc1OCC2 | < 1000
13 | CC(C)N(CCO)C(=O)c1cc2n(n1)-c1ccccc1OCC2 | < 1000
14 | CCNC(=O)CN1CCC(c2ccc3c(c2)OCCn2cc(-c4nc(C)nn4C(C)C)nc2-3)CC1 | < 1000
15 | Cc1nc(-c2cn3c(n2)-c2ccc([C@@H]4CCNC[C@@H]4O)cc2OCC3)n(C(C)C)n1 | < 1000
16 | CC(C)n1ncnc1-c1cc2n(n1)-c1cc(C(=O)N3CCN(CC(F)(F)F)CC3)ccc1OCC2 | < 1000
17 | Cc1nc(-c2cn3c(n2)-c2ccc(CNCC(C)(C)O)cc2OCC3)n(-c2ccc(F)cc2F)n1 | < 1000
18 | CC(C)n1ncc(C#N)c1-c1cn2c(n1)-c1ccc(C(N)=O)cc1OCC2 | < 1000
19 | CC(C)n1ncnc1-c1cn2c(n1)-c1cc(Br)ccc1OCC2 | < 1000
20 | CC(C)n1ncnc1-c1cn2c(n1)-c1cnc(N[C@H](C)C(N)=O)cc1OCC2 | < 1000
21 | CC[C@H](Oc1ccc2c(c1)OCCn1cc(-c3ncnn3C(C)C)nc1-2)C(N)=O | < 1000
22 | CC(C)n1ncnc1-c1cn2c(n1)-c1cnc(N3CCC(C(N)=O)CC3)cc1OCC2 | < 1000
23 | CC(C)(CO)NC(=O)c1ccc2c(c1)OCCn1cc(-c3ncnn3-c3ccccc3Cl)nc1-2 | < 1000
24 | CC(C)n1ncnc1-c1cn2c(n1)-c1cc(-c3ccc(Cl)cc3)ccc1OCC2 | < 1000
25 | CC(C)n1ncnc1-c1cn2c(n1)-c1cnc(N3C[C@@H](O)C[C@H]3C(N)=O)cc1OCC2 | < 1000

Row | Structure (SMILES) | IC50 [nM]
26 | CC(C)n1ncnc1-c1cn2c(n1)-c1ccc(OC3COC3)cc1OCC2 | < 1000
27 | c1cn(CCN2CCOCC2)c(-c2cn3c(n2)-c2cc(-c4cn[nH]c4)ccc2OCC3)n1 | < 1000
28 | CC(C)n1nc(N)nc1-c1cn2c(n1)-c1ccc(-c3ccc(Cl)cc3)cc1OCC2 | < 1000
29 | CNC(=O)c1ccc2c(c1)-c1nn(-c3ncnn3C(C)C)cc1CCO2 | < 1000
30 | NC(=O)CN1CC(c2ccc3c(c2)OCCc2cn(-c4ncnn4-c4ccc(F)cc4F)nc2-3)C1 | < 1000
31 | Cc1nc(-c2cn3c(n2)-c2ccc(-c4cnn(CCO)c4)cc2OCC3)n(C(C)C)n1 | < 1000
32 | CC(C)n1ncnc1-c1cn2c(n1)-c1ccc([C@H](C)C(N)=O)cc1OCC2 | < 1000
33 | Nc1nc(-c2cn3c(n2)-c2cc(-c4ccc(Cl)cc4)ccc2OCC3)n(-c2ccccc2Cl)n1 | < 1000
34 | Cc1nc(-c2cn3c(n2)-c2ccccc2OCC3)n(C(C)C)n1 | < 1000
35 | Cc1nc(-c2cn3c(n2)-c2cnc(N4CCCC4CN4CCCCC4)cc2OCC3)n(CC(F)(F)F)n1 (configuration not stated) | < 1000
36 | CC(C)n1ncnc1-c1cn2c(n1)-c1ccc(N3CCN(C)CC3)nc1OCC2 | < 1000
37 | NC(=O)[C@@H]1CCCCN1c1ccc2c(c1)OCCn1cc(-c3ncnn3CC(F)(F)F)nc1-2 | < 1000
38 | CC(C)n1ncnc1-c1cn2c(n1)-c1ccc(CCS(N)(=O)=O)cc1OCC2 | < 1000
39 | CC(C)n1ncnc1-c1cn2c(n1)-c1cc(-c3ccccc3)ccc1OCC2 | < 1000
40 | CC(C)n1ncnc1-c1cn2c(n1)-c1cnc(N3CC[C@@H](O)[C@H]3C(N)=O)cc1OCC2 | < 1000
41 | CC(C)n1ncnc1-c1cn2c(n1)-c1ccc(OC(F)F)cc1OCC2 | < 1000
42 | CONC(=O)c1ccc2c(c1)OCCn1cc(-c3ncnn3C(C)C)nc1-2 | < 1000
43 | Cc1nc(-c2cn3c(n2)-c2cnc(N4C[C@@H](O)C[C@H]4C(N)=O)cc2OCC3)n(C(C)C)n1 | < 1000
44 | CC(C)n1nc(CO)nc1-c1cn2c(n1)-c1cnc(N3CC(F)(F)C3)cc1OCC2 | < 1000
45 | Cn1ccnc1C(O)CNc1cc2c(cn1)-c1nc(-c3ncnn3-c3ccc(F)cc3F)cn1CCO2 (configuration not stated) | < 1000
46 | Cc1nc(-c2cn3c(n2)-c2cc(-c4ccc(=O)[nH]c4)ccc2OCC3)n(C(C)C)n1 | < 1000
47 | CC(C)n1ncnc1-c1cc2n(n1)-c1cc(C3CN(CCO)C3)ccc1OCC2 | < 1000
48 | CC(C)Oc1ccc2c(c1)OCCn1cc(-c3ncnn3C(C)C)nc1-2 | < 1000
49 | CC(C)n1ncnc1-c1cn2c(n1)-c1ccc(N3CCNC(=O)C3)nc1OCC2 | < 1000
50 | Cc1nc(-c2cn3c(n2)-c2ccc(N4CC[C@H]4C(N)=O)cc2OCC3)n(CC(F)(F)F)n1 | < 1000

Row | Structure (SMILES) | IC50 [nM]
51 | CC(C)n1ncnc1-c1cc2n(n1)-c1cc(C3CN(S(C)(=O)=O)C3)ccc1OCC2 | < 1000
52 | CC(C)n1ncnc1-c1cn2c(n1)-c1ccc(C3=CCN(C)CC3C(N)=O)cc1OCC2 (configuration not stated) | < 1000
53 | CC(C)n1nc(N)nc1-c1cn2c(n1)-c1cc(-c3cncnc3)ccc1OCC2 | < 1000
54 | CC(C)n1ncnc1-c1cn2c(n1)-c1cc(NC3CNC3)ncc1OCC2 | < 1000
55 | CS(=O)(=O)CCN1CCC(c2ccc3c(c2)-c2nn(-c4ncnn4-c4ccc(F)cc4F)cc2CCO3)CC1 | < 1000
56 | NC(=O)[C@H](CO)Oc1ccc2c(c1)OCCn1cc(-c3ncnn3CC(F)(F)F)nc1-2 | < 1000
57 | CC(C)n1ncnc1-c1cn2c(n1)-c1cc(-c3ccc[nH]c3=O)ccc1OCC2 | < 1000
58 | CC(C)n1ncnc1-c1cn2c(n1)-c1ccc(OCC(N)=O)cc1OCC2 | < 1000
59 | Cc1nc(-c2cn3c(n2)-c2ccc([C@@H]4CCCN4C(N)=O)cc2OCC3)n(C(C)C)n1 | < 1000
60 | CC(C)CC(Oc1ccc2c(c1)OCCn1cc(-c3ncnn3C(C)C)nc1-2)C(N)=O (configuration not stated) | < 1000
61 | Cc1nc(-c2ccc3c(c2)OCCn2cc(-c4ncnn4C(C)C)nc2-3)cn1CC(C)(C)O | < 1000
62 | Cc1nc(-c2cn3c(n2)-c2ccc(OC4CCC4)cc2OCC3)n(C(C)C)n1 | < 1000
63 | Cc1nc(-c2cn3c(n2)-c2ccc(-c4cn[nH]c4)cc2OCC3)n(C(C)C)n1 | < 1000
64 | Cc1nc(-c2cn3c(n2)-c2cnc(N4CC[C@@H](O)[C@H]4C(N)=O)cc2OCC3)n(C(C)C)n1 | < 1000
65 | CC(C)n1ncnc1-c1cn2c(n1)-c1ccc(-c3cnc(CC(C)(C)O)[nH]3)cc1OCC2 | < 1000
66 | Cc1nc(-c2cn3c(n2)-c2ccc(-c4cn(CC(C)(C)O)cn4)cc2OCC3)n(C(C)C)n1 | < 1000
67 | CC(C)n1ncnc1-c1cn2c(n1)-c1cnc(N3CCC[C@@]3(C)C(N)=O)cc1OCC2 | < 1000
68 | CC(C)(O)CN1CC(c2ccc3c(c2)OCCc2cn(-c4ncnn4-c4ccc(F)cc4F)nc2-3)C1 | < 1000
69 | CNC(=O)CN1CCC(c2ccc3c(c2)OCCn2cc(-c4ncnn4C(C)C)nc2-3)CC1 | < 1000
70 | CC(C)n1ncnc1-c1cn2c(n1)-c1ccc(OC3CCC3)cc1OCC2 | < 1000
71 | NC(=O)CN1CCC(c2ccc3c(c2)-n2nc(-c4ncnn4CC(F)(F)F)cc2CCO3)CC1 | < 1000
72 | Nc1nc(-c2cn3c(n2)-c2cc(-c4cncnc4)ccc2OCC3)n(-c2ccccc2Cl)n1 | < 1000
73 | CC(C)n1ncnc1-c1cn2c(n1)-c1cnc(N3CCOCC3)cc1OCC2 | < 1000
74 | CC(C)n1ncnc1-c1cn2c(n1)-c1ccc([C@@H]3C[C@H]4CC[C@@H](C3)N4CC(N)=O)cc1OCC2 | < 1000
75 | Cc1nc(-c2cn3c(n2)-c2cnc(N4CCC[C@H]4C(N)=O)cc2OCC3)n(C(C)C)n1 | < 1000

Row | Structure (SMILES) | IC50 [nM]
76 | CC(C)[C@@H](Oc1ccc2c(c1)OCCn1cc(-c3ncnn3CC(F)(F)F)nc1-2)C(N)=O | < 1000
77 | CC(C)n1ncnc1-c1cn2c(n1)-c1ccc(C3C(=O)NNC3=O)cc1OCC2 | < 1000
78 | OCCN1CCC(c2ccc3c(c2)-c2nn(-c4ncnn4-c4ccc(F)cc4F)cc2CCO3)CC1 | < 1000
79 | CC(C)n1ncnc1-c1cn2c(n1)-c1ccc(C(=O)NC(C)(C)CO)cc1OCC2 | < 1000
80 | CC(C)n1ncnc1-c1cc2n(n1)-c1cc(C(=O)N3CCS(=O)(=O)CC3)ccc1OCC2 | < 1000
81 | CC(C)n1ncnc1-n1cc2c(n1)-c1ccc(-c3cn[nH]c3)cc1OCC2 | < 1000
82 | CC(C)(Oc1ccc2c(c1)OCCn1cc(-c3ncnn3CC(F)(F)F)nc1-2)C(N)=O | < 1000
83 | CCOc1ccc2c(c1)OCCn1cc(-c3ncnn3C(C)C)nc1-2 | < 1000
84 | CCOc1ccc2c(c1)OCCn1cc(-c3nc(C)nn3C(C)C)nc1-2 | < 1000
85 | CNC(=O)C(C)(C)N1CCC(c2ccc3c(c2)OCCn2cc(-c4ncnn4C(C)C)nc2-3)C(O)C1 (configuration not stated) | < 1000
86 | CS(=O)(=O)CCN1CCC(CO)(c2ccc3c(c2)-c2nn(-c4ncnn4-c4ccc(F)cc4F)cc2CCO3)CC1 | < 1000
87 | CC(C)n1ncnc1-c1cn2c(n1)-c1ccc(-c3cncn3CCO)cc1OCC2 | < 1000
88 | Cc1nc(-c2cn3c(n2)-c2cnc(N)cc2OCC3)n(CC(F)(F)F)n1 | < 1000
89 | CC(C)n1nc(CC(N)=O)nc1-c1cn2c(n1)-c1ccc(Br)cc1OCC2 | < 1000
90 | CC(C)n1ncnc1-n1cc2c(n1)-c1cc(C(=O)N3CCNCC3)ccc1OCC2 | < 1000
91 | CC(C)n1ncnc1-c1cc2n(n1)-c1cc(C3CNC3)ccc1OCC2 | < 1000
92 | C[C@H](Oc1ccc2c(c1)OCCn1cc(-c3ncnn3C(C)(C)C)nc1-2)C(N)=O | < 1000
93 | CC(C)n1ncnc1-c1cn2c(n1)-c1ccc(O)cc1OCC2 | < 1000
94 | Cc1nc(-c2cn3c(n2)-c2ccc(C4COC4)cc2OCC3)n(C(C)C)n1 | < 1000
95 | CC(C)n1ncnc1-c1cn2c(n1)-c1ccc(OC(C(N)=O)C3CC3)cc1OCC2 (configuration not stated) | < 1000
96 | Cc1ncc(-c2ccc3c(c2)OCCn2cc(-c4ncnn4C(C)C)nc2-3)n1CCO | < 1000
97 | Cc1nc(-c2cn3c(n2)-c2ccc(-c4cnn(CC(C)C(N)=O)c4)cc2OCC3)n(C(C)C)n1 (configuration not stated) | < 1000
